The source of these data is PubChem BioAssay (NCI).

Common to all, as to assay: NCI tumour cell line growth inhibition, 48 h
Test [1] relates to T-47D breast.
Test [2] concerns RPMI-8226 leukemia.
For test [3], the system named is K-562 leukemia.
For test [4], the system named is SF-295 CNS.
The subject of test [5] is NCI-H226 lung.
Test [6] has as its system SW-620 colon.
In test [7] the test system is HT29 colon.
For test [8], the system named is M14 melanoma.
For test [9], the system named is SK-MEL-2 melanoma.
Test [10] deals with NCI/ADR-RES ovarian.

Molecules are shown by their SMILES.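 96-well plates; 48 h exposure; 5 concentrations. Endpoints by linear interpolation between flanking doses. Not reached: highest tested concentration assigned. TGI: concentration producing complete growth inhibition.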

As to `COc1ccc(NC(C(N)=O)c2cc3cc(Br)ccc3nc2Cl)cc1` (stereo not given), the TGI in test [1], in test [2], in test [3], in [4], in [5] and in test [6] was more than 100 µM each time. In addition, the TGI in test [7], in [8], in test [9] and in test [10] was more than 100 µM each time.
For the molecule `Cc1cc2c(cc1C)C(=O)C1(C2)Cc2cc3c(cc2C1=O)CCC3` (stereo not given), the TGI in test [1], in test [2], in test [3], in test [4], in test [5] and in test [6] was more than 100 µM each time. Further, the TGI in [7], in test [8], in test [9] and in [10] was more than 100 µM each time.
Turning to `O=C(c1cccnc1)N1N=C(c2ccccc2)CC1(O)c1cc(F)c(Cl)cc1Cl` (stereo not given), the TGI was 62.4 µM in test [1]; 55.6 µM in [2]; 80.4 µM in test [3]; 36.9 µM in test [4]; 36.3 µM in [5]; more than 100 µM in [6]. The TGI in test [7] is more than 100 µM; in test [8], 53.7 µM; in test [9], 45.8 µM; in [10], 83.7 µM.
Take `N#Cc1cc(Sc2ccc(N)c(C#N)c2)ccc1N`: the TGI in test [1] is more than 100 µM; in test [2], 59.2 µM; in test [3], 60.2 µM; in test [4], more than 100 µM; in [5], 81 µM; in test [6] it was more than 100 µM. Further, the TGI in test [7] is 30.9 µM; in test [8], 47.8 µM; in test [9], more than 100 µM; in test [10] it was 35.3 µM.
Take `COc1c(Br)cc2ccccc2c1-c1c(OC)c(Br)cc2ccccc12`: the TGI in test [1], in test [2], in test [3], in test [4], in test [5] and in test [6] was more than 100 µM each time. In addition, the TGI in [7], in [8], in test [9] and in test [10] was more than 100 µM throughout.
Turning to `N/C(=N\Nc1ccc(Cl)cc1)c1cnccn1`, the TGI in [1], in [2], in test [3], in [4], in test [5] and in [6] was more than 100 µM each time. The TGI in [7], in [8], in test [9] and in test [10] was more than 100 µM in each case.
As to `O=C(CN1CCCCC1)Nc1ccc2c(c1)C1Oc3ccccc3CC1CO2` (stereo not given), the TGI in test [1] was 52 µM; in test [2] it was more than 100 µM; in test [3], more than 100 µM; in test [4], 36.4 µM; in test [5], 55.8 µM; in [6], 39.7 µM. The TGI in [7] came to 29.1 µM; in test [8], 32.3 µM; in test [9] it was 35.5 µM; in test [10], 88.3 µM.
Turning to `C/C=C(\C)C(=O)O[C@@H]1CC(C)(C)CC2C3=CCC4[C@]56CC[C@](O)(OC5)C(C)(C)C6CC[C@@]4(C)C3(C)CC[C@]21C(=O)O` (stereo not given in full), the TGI in test [1], in test [2], in test [3], in [4], in [5] and in test [6] was more than 100 µM throughout. For the same molecule, the TGI in test [7], in test [8], in test [9] and in test [10] was more than 100 µM throughout.
Consider `O=c1c2cnccc2cc2c3ccccc3ccn12`, for which the TGI in test [1], in test [2], in test [3], in test [4], in [5] and in test [6] was more than 100 µM throughout. Moreover, the TGI in test [7], in test [8], in test [9] and in [10] was more than 100 µM in each case.
With `CCCCc1ccc(Nc2nc(Cl)c3c(ncn3C3CC(Oc4ccc(C)cc4)C(COc4ccc(C)cc4)O3)n2)cc1` (stereo not given), the TGI in [1], in [2], in [3], in test [4], in test [5] and in [6] was more than 100 µM throughout. The TGI in test [7], in test [8], in test [9] and in test [10] was more than 100 µM throughout.
For the molecule `CN1CCc2c(sc3ncn(Nc4ccc(Cl)cc4)c(=N)c23)C1`, the TGI in test [1], in test [2], in test [3], in test [4], in [5] and in test [6] was more than 100 µM each time. The TGI in [7], in test [8], in test [9] and in [10] was more than 100 µM in each case.
For `O[C@@H]1CCC[C@@H]2NC[C@@H](c3ccc4c(c3)OCO4)[C@H]12`, the TGI in test [1], in test [2], in test [3], in test [4], in [5] and in test [6] was more than 100 µM throughout. The TGI in test [7], in [8], in test [9] and in test [10] was more than 100 µM in each case.
Take `Cc1cc(Nc2ccc(NS(C)(=O)=O)cc2)c2c(ccc3nccc32)[nH]1`: the TGI in test [1] was 19.5 µM; in test [2] it was 40.7 µM; in [3], 34.6 µM; in [4], 60.5 µM; in test [5], 41.9 µM; in [6], more than 100 µM. Besides, the TGI is 89.3 µM in test [7], 31.1 µM in test [8], 30.5 µM in test [9] and more than 100 µM in [10].
In the case of `CCCCCCCCP(=O)(O)OP(=O)(O)OCC1OC(n2ccc(N)nc2=O)C(O)C1O` (stereo not given), the TGI in test [1], in [2], in test [3], in test [4], in [5] and in test [6] was more than 100 µM throughout. The TGI in test [7], in test [8], in test [9] and in test [10] was more than 100 µM throughout.
In the case of `CN(C)CCNC(=O)c1cccc2nc3c(C(=O)NCCN(C)C)cccc3nc12`, the TGI in [1] was 34.5 µM; in [2], more than 23.6 µM; in test [3], 12.5 µM; in test [4], 6.46 µM; in [5] it was 5.66 µM; in test [6] it was 12.1 µM. For the same molecule, the TGI in test [7] is 3.49 µM; in [8], 3.13 µM; in test [9], 4.16 µM; in [10] it was more than 58.1 µM.
Consider `C=CCOC(=O)N1c2ccc(O)cc2[C@@]23O[C@@]24[C@@H]1C#C/C=C\C#C[C@]3(O)C(OC)(OC)C[C@@H]4C`, for which the TGI was more than 100 µM in test [1]; 91.5 µM in test [2]; more than 100 µM in test [3]; more than 100 µM in test [4]; 74.3 µM in [5]; more than 100 µM in test [6]. Also, the TGI was 49.8 µM in [7], 79.9 µM in [8], 58.3 µM in [9] and more than 100 µM in [10].
Regarding `Cc1ccc(N=Nc2c(O)ccc3cc(S(=O)(=O)O)ccc23)cc1`, the TGI in test [1], in [2], in test [3], in [4], in test [5] and in test [6] was more than 100 µM throughout. In addition, the TGI in [7], in [8], in test [9] and in [10] was more than 100 µM in each case.
In the case of `CC(=O)O[C@H]1C[C@@H](OC(C)=O)[C@@](C)(O)[C@@H]2[C@@H](OC(C)=O)[C@@]3(O)[C@H](/C=C(/CO)[C@H]4O[C@H]4[C@@H](OC(C)=O)[C@@]12C)OC(=O)[C@@H]3C`, the TGI is more than 25 µM in [1]; more than 25 µM in test [2]; more than 25 µM in [3]; 16.8 µM in test [4]; more than 25 µM in test [5]; more than 25 µM in test [6]. Further, the TGI in [7], in test [8], in test [9] and in [10] was more than 25 µM each time.
Regarding `Cc1c(C)c(C)c(-n2c(=O)n(C)c(=O)n2-c2cc(C(C)(C)C)cc(C(C)(C)C)c2O)c(C)c1C`, the TGI in test [1] came to 18.6 µM; in [2] it was 29 µM; in [3], 27.2 µM; in test [4], 21.2 µM; in test [5] it was 22.1 µM; in test [6] it was 28.4 µM. The TGI in test [7] came out at 15.9 µM; in test [8], 25.9 µM; in test [9], 20.3 µM; in test [10] it was 23.4 µM.
For the molecule `C#C[C@@]1(O)CCCC2=CC3(CC[C@]21C)SCCS3`, the TGI in test [1], in test [2], in test [3], in [4], in test [5] and in [6] was more than 100 µM throughout. Besides, the TGI in test [7], in [8], in test [9] and in [10] was more than 100 µM each time.
For the molecule `C=CCOC(OCC=C)/C(Br)=C/C`, the TGI in test [1] is 72.6 µM; in [2] it was more than 100 µM; in [3], more than 100 µM; in test [4], more than 100 µM; in test [5] it was more than 100 µM; in test [6], more than 100 µM. The TGI in [7] was 62.3 µM; in test [8], more than 100 µM; in test [9], more than 100 µM; in test [10], 89.2 µM.
As for `COC(=O)C1CCC(=O)N1C(c1cc(OC)c(OC)c(OC)c1)c1cccc2ccccc12` (stereo not given), the TGI in [1], in [2], in test [3], in [4], in test [5] and in [6] was more than 100 µM each time. In addition, the TGI in [7], in [8], in test [9] and in test [10] was more than 100 µM in each case.
Regarding `CO/N=C(\C([O-])=N\[n+]1cnn(CC(=O)OC(C)(C)C)c1)c1csc(NC(c2ccccc2)(c2ccccc2)c2ccccc2)n1`, the TGI in test [1], in test [2], in test [3], in test [4], in test [5] and in [6] was more than 10 µM throughout. Further, the TGI in test [7], in test [8], in test [9] and in test [10] was more than 10 µM each time.
On to `O=C(c1cccs1)N1CCCN(C(=O)c2cccs2)C1=S`, for which the TGI in [1], in test [2], in test [3], in [4], in [5] and in test [6] was more than 100 µM each time. Further, the TGI in test [7], in test [8], in test [9] and in [10] was more than 100 µM each time.
